Experiment [1] relates to T47D (PI3Kα H1047R mutant) cells. Nature of the experiment: CellTiter-Glo 2.0 luminescent cell viability assay, 72 hours, T47D cells. As to conditions: Homo sapiens, T47D, 72 h, T47D (PI3Kα H1047R mutant) cells, CellTiter-Glo, approximately 72 hours; read-out: T47D (H1047R mutant) Viability IC50. Type of experiment: cell-based. The method in brief:
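Cells seeded at 1000 per well overnight were dosed with a 10-concentration, 1:4 series starting at 10 µM and incubated ~72 h at 37° C. Viability was read by CellTiter-Glo 2.0 luminescence after 30 min at room temperature. IC50 came from four-parameter fits of percent vehicle control.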
For orientation: In ATP-based viability assays light output follows the ATP content of the culture.

The subject of experiment [2] is SKBR3 (PI3Kα wild type) cells. Nature of the experiment: CellTiter-Glo 2.0 luminescent cell viability assay, 72 hours, SKBR3 cells. It counts as cell-based. As to conditions: Homo sapiens, SK-BR-3, 72 h, SKBR3 (PI3Kα wild type) cells, CellTiter-Glo, approximately 72 hours; read-out: SKBR3 (WT) Viability IC50. The method in brief:
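Viability measured via CTG luminescence following roughly 72 hours of compound exposure at 37° C. Dosing used a 10 um starting concentration diluted 1:4 over 10 points; percent-of-vehicle data fitted with a variable-slope four-parameter model for IC50.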

Data on ten molecules can be found in patent US20260078120A1, “SUBSTITUTED PYRIDOPYRIMIDINONES” (MIRATI THERAPEUTICS, INC., priority 2022, published 2026).

A value given as a limit tells only on which side of the number the result lay.

Usually IC50 stands for the concentration that inhibits the measured activity by half. For the molecule `Cc1cc([C@@H](C)Nc2ccccc2C(=O)O)c2nc(N3CC(c4cccnc4)C3)c(C)c(=O)n2c1` [Example 11-21, (R)-2-((1-(3,7-dimethyl-4-oxo-2-(3-(pyridin-3-yl)azetidin-1-yl)-4H-pyrido[1,2-a]pyrimidin-9-yl)ethyl)amino)benzoic acid], the IC50 in experiment [1] was 239 nM; in experiment [2], more than 10000 nM.
For `Cc1cc([C@@H](C)Nc2ccccc2C(=O)O)c2nc(N3CC4(CCC4)C3)c(C#N)c(=O)n2c1` [Example 11-323, (R)-2-((1-(3-cyano-7-methyl-4-oxo-2-(azaspiro[3.3]heptan-2-yl)-4H-pyrido[1,2-a]pyrimidin-9-yl)ethyl)amino)benzoic acid], the results for the IC50 in experiment [1] and in experiment [2] were 156 nM and more than 10000 nM, respectively.
Taken in the same sequence, the figures for `Cc1cc([C@@H](C)Nc2ccccc2C(=O)O)c2nc(N3CCN(c4cn(C)nc4C#N)CC3)c(C#N)c(=O)n2c1` [Example 11-184, (R)-2-((1-(3-cyano-2-(4-(3-cyano-1-methyl-1H-pyrazol-4-yl)piperazin-1-yl)-7-methyl-4-oxo-4H-pyrido[1,2-a]pyrimidin-9-yl)ethyl)amino)benzoic acid] were 370 nM and more than 10000 nM.
As to `CO[C@@H]1CN(c2nc3c([C@@H](C)Nc4ccccc4C(=O)O)cc(C)cn3c(=O)c2C)CC1(F)F` [Example 11-117, 2-(((R)-1-(2-((R)-3,3-difluoro-4-methoxypyrrolidin-1-yl)-3,7-dimethyl-4-oxo-4H-pyrido[1,2-a]pyrimidin-9-yl)ethyl)amino)benzoic acid], the IC50 in experiment [1] is 350 nM; in experiment [2], more than 10000 nM.
For `Cc1cc([C@@H](C)Nc2ccccc2C(=O)O)c2nc(-c3c[nH]cn3)c(C)c(=O)n2c1` [Example 11-235, (R)-2-((1-(2-(1H-imidazol-4-yl)-3,7-dimethyl-4-oxo-4H-pyrido[1,2-a]pyrimidin-9-yl)ethyl)amino)benzoic acid], the IC50 is 3600 nM in experiment [1] and more than 10000 nM in experiment [2].
Taken in the same sequence, the figures for `Cc1cc([C@@H](C)Nc2ccccc2C(=O)O)c2nc(N3CCN(c4cccc(C#N)c4)CC3)c(C)c(=O)n2c1` [Example 11-226, (R)-2-((1-(2-(4-(3-cyanophenyl)piperazin-1-yl)-3,7-dimethyl-4-oxo-4H-pyrido[1,2-a]pyrimidin-9-yl)ethyl)amino)benzoic acid] were 282 nM and more than 10000 nM.
As to `C=C(C#N)CNc1nc2c([C@@H](C)Nc3ccccc3C(=O)O)cc(C)cn2c(=O)c1C#N` [Example 11-108, (R)-2-((1-(3-cyano-2-((2-cyanoallyl)amino)-7-methyl-4-oxo-4H-pyrido[1,2-a]pyrimidin-9-yl)ethyl)amino)benzoic acid], the IC50 in experiment [1] was 3690 nM; in experiment [2] it was more than 10000 nM.
For `Cc1cc([C@@H](C)Nc2ccccc2C(=O)O)c2nc(N3CCCC4(CCC4O)C3)c(C)c(=O)n2c1` (stereo partly drawn) [Example 10-8, 2-(((1R)-1-(2-(1-hydroxy-6-azaspiro[3.5]nonan-6-yl)-3,7-dimethyl-4-oxo-4H-pyrido[1,2-a]pyrimidin-9-yl)ethyl)amino)benzoic acid], the IC50 in experiment [1] was 24.2 nM; in experiment [2], more than 10000 nM.
In the case of `Cc1cc([C@@H](C)Nc2ccccc2C(=O)O)c2nc(N3C4CCC3CN(c3ccc(C#N)cc3)C4)c(C#N)c(=O)n2c1` [Example 11-182, 2-(((1R)-1-(3-cyano-2-(3-(4-cyanophenyl)-3,8-diazabicyclo[3.2.1]octan-8-yl)-7-methyl-4-oxo-4H-pyrido[1,2-a]pyrimidin-9-yl)ethyl)amino)benzoic acid], the IC50 in experiment [1] is 238 nM; in experiment [2], more than 10000 nM.
Turning to `Cc1cc([C@@H](C)Nc2ccccc2C(=O)O)c2nc(N3CCN(CC(F)(F)F)CC3)c(C#N)c(=O)n2c1` [Example 11-154, (R)-2-((1-(3-cyano-7-methyl-4-oxo-2-(4-(2,2,2-trifluoroethyl)piperazin-1-yl)-4H-pyrido[1,2-a]pyrimidin-9-yl)ethyl)amino)benzoic acid], the IC50 in experiment [1] was 138 nM; in experiment [2], more than 10000 nM.
